Data taken from patent US20170105969A1, “CENICRIVIROC FOR THE TREATMENT OF HIV-2 INFECTION” (Tobira Therapeutics, Inc., priority 2014, published 2017).
Structures can show the parent of a compound that is named as a salt. Where two headings read alike, the source gives them in different places. Marks after values point to notes of the source that are not given here.

Tests used:
CCR5 = CCR5 (Homo sapiens, UniProt P51681); assay: CCR5 receptor occupancy / internalization in PBMCs by flow cytometry; format: cell-based
Chain of CCR5 (P51681 whole entry): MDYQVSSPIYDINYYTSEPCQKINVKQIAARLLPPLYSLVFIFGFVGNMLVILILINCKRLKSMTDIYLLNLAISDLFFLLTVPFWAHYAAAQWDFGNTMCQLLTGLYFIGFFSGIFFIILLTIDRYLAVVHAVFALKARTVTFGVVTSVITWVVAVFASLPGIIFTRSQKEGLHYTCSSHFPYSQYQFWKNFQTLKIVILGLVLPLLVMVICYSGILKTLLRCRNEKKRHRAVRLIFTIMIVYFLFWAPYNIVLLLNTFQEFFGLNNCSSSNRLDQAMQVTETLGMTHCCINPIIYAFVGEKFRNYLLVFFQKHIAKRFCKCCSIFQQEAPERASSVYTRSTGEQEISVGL
Protocol: (§1) The capacity of each drug to inhibit CCR5 or CCR2 internalization was evaluated. Cell-surface expression of CCR5 and CCR2 was assessed by flow cytometry, and fluorescence values were converted into molecules of equivalent soluble fluorescence (MESF).

CCR5-tropic HIV-1 BaL = assay: PM-1 cells infected with HIV-1 BaL, supernatant P24 and viral load after 4 hours; format: cell-based; settings: CVC 20 nM or MVC 50 nM
Protocol: (§2) Early (strong-stop) and late (full-length) reverse transcript levels were measured by qPCR. […] P24 and viral load levels were measured by ELISA and qRT-PCR after 4 hours.

HIV-2 clinical isolates = assay: HIV-2 phenotypic susceptibility, ANRS PBMC method; format: cell-based
Protocol: All patients were infected with HIV-2 group A. Tropism was determined phenotypically using Ghost(3) cell lines expressing CD4 receptor and one HIV coreceptor, CCR5 or CXCR4. Both Ghost(3) cell lines carries a humanized green fluorescent protein (GFP) gene, under the control of a HIV-2 LTR. […] Ghost(3) cells were provided by the NIH AIDS Reagent program.
Briefly, cell-free HIV-2 positive supernatant was serially diluted (1, 10^−1, and 10^−2) and incubated with PBMC for viral titration. Viruses were tested at a 100 TCID50 titration. Cells were pre-incubated with cenicriviroc or maraviroc at an appropriate concentration 1 hour before viral infection. Six serial dilutions of the antiretroviral drug were tested in quadruplicate. On day 4, viral replication was assessed by a specific viral load assay (Generic HIV-2 viral load, Biocentric, France).

HIV-1 [1] = assay: HIV-1 susceptibility to maraviroc, observed results; format: cell-based; settings: HIV-1 (n = 4)
HIV-1 [2] = settings: HIV-1 (n = 43); Dorr et al. (2005); read-out: Median IC50; cited from earlier work
CCR2 = molecular target: T1, CCR2 (Homo sapiens, UniProt P41597); assay: CCR2 receptor occupancy / internalization in PBMCs (monocytes) by flow cytometry; format: cell-based
T1 construct: endogenous in cells; host or cells: monocytes within PBMCs from 5 HIV+ and 5 HIV- subjects
T1 sequence (P41597 1-360 isoform P41597-2): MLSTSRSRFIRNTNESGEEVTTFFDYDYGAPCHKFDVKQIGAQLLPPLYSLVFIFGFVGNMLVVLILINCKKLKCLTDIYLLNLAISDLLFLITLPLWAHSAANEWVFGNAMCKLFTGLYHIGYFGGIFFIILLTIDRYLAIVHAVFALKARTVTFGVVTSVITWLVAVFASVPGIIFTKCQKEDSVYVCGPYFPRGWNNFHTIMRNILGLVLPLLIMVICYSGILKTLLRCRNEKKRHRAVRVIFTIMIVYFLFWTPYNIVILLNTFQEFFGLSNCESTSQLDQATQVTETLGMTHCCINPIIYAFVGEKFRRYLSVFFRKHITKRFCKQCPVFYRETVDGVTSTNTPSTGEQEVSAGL
Protocol: as §1

[3] = Solubility of cenicriviroc mesylate; format: physicochemical
[4] = APRI and FIB-4 fibrosis scores, post-hoc analysis of Study 202; format: in vivo, human
Protocol: Change in score category from baseline (BL) to Weeks 24 and 48 was assessed in patients with non-missing data. Correlations between changes from BL in APRI and FIB-4 scores, and MCP-1 (CCR2 ligand) and sCD14 (inflammatory biomarker) levels were evaluated.

HIV = assay: Ex vivo intracellular HIV DNA (qPCR) in PBMCs of Study 202 subjects; settings: EFV 600 mg arm, Week 24
Protocol: as §2

HIV-1 [5] = assay: Study 202: virologic response (plasma HIV-1 RNA <50 copies/mL), Snapshot algorithm, ITT; format: in vivo, human; settings: Week 24; EFV arm
Excerpt: The primary efficacy endpoint was the percentage of subjects with plasma HIV-1 RNA <50 copies/mL at Week 24 (using the FDA Snapshot algorithm and the ITT population).

HIV-1 [6] = assay: as above; format: in vivo, human; settings: for virologic non-response, subgroup with high baseline viral load (≧100,000 copies/mL): EFV
[7] = HIV-2 isolate 10-046, group A, R5
[8] = HIV-2 isolate 10-051, group A, R5
[9] = HIV-2 isolate 10-055, group A, X4
[10] = HIV-2 isolate 10-056, group A, R5
[11] = HIV-2 isolate 10-069, group A, Dual
[12] = HIV-2 isolate 10-074, group A, R5
[13] = mixed R5/X4 HIV-2 clinical isolate, first of two
[14] = mixed R5/X4 HIV-2 clinical isolate, second of two

maraviroc [MVC]
CCR5 receptor occupancy at saturation (CCR5; CD4+ T cells): ~86%
effective concentration at which saturation of CCR5 was reached (CCR5; CD4+ T cells): 12.5 nM
CCR5 receptor occupancy at saturation (CCR5; CD8+ T cells): ~87%
effective concentration at which saturation of CCR5 was reached (CCR5; CD8+ T cells): 12.5 nM
cell-surface expression of CCR5 (in words) (CCR5; in the absence of RANTES, PBMCs): increased cell-surface expression of CCR5
supernatant P24 (CCR5-tropic HIV-1 BaL; 0 hrs (baseline)): 506 ng/mL
viral load (CCR5-tropic HIV-1 BaL; 0 hrs): 1.19×10^10 copies/ml
supernatant P24 (CCR5-tropic HIV-1 BaL; 4 hrs): 520 ng/mL
viral load (CCR5-tropic HIV-1 BaL; 4 hrs): 1.67×10^10 copies/ml
median MPI (HIV-2 clinical isolates; 13 R5 HIV-2 clinical isolates): 93%
median MPI (HIV-2 clinical isolates; 13 R5 HIV-2 clinical isolates, listed as maraviroc): 93%
EC50 (HIV-2 clinical isolates; [7]): 1.13 nM
MPI (%) (HIV-2 clinical isolates; [7]): 93%
EC50 (HIV-2 clinical isolates; [8]): 0.48 nM
MPI (%) (HIV-2 clinical isolates; [8]): 82%
EC50 (HIV-2 clinical isolates; [9]): > 1000 nM
MPI (%) (HIV-2 clinical isolates; [9]): 0%
EC50 (HIV-2 clinical isolates; [10]): 0.58 nM
MPI (%) (HIV-2 clinical isolates; [10]): 90%
EC50 (HIV-2 clinical isolates; [11]): > 1000 nM
MPI (%) (HIV-2 clinical isolates; [11]): 12%
EC50 (HIV-2 clinical isolates; [12]): 0.68 nM
MPI (%) (HIV-2 clinical isolates; [12]): 100%
EC50 (HIV-2 clinical isolates; X4 HIV-2 clinical isolate): > 1000 nM
MPI (HIV-2 clinical isolates; X4 HIV-2 clinical isolate): 0%
EC50 (HIV-2 clinical isolates; [13]): 9.4 nM
MPI (HIV-2 clinical isolates; [13]): 55%
EC50 (HIV-2 clinical isolates; [14]): > 1000 nM
MPI (HIV-2 clinical isolates; [14]): 12%
IC50 (HIV-2 clinical isolates; read-out: Median IC50, HIV-2 (n = 13), Observed Results): 0.8 nM
EC50 (HIV-2 clinical isolates; read-out: median EC50, 13 R5 HIV-2 clinical isolates): 0.8 nM
median MPI (HIV-1 [1]): 74%
IC50 (HIV-1 [1]; read-out: Median IC50): 2.4 nM
IC50 (HIV-1 [2]): 0.4 nM

CSc1ccc(C(=O)N[C@@H]2CCCC[C@@H]2NC(=O)CNC(=O)c2cc(C(F)(F)F)ccc2NC(=O)NC(C)C)cc1 [BMS-22, reference compound]
average concentration required to reach >80% receptor occupancy (CCR2; CCR2, monocytes): 18 nM
CCR2 cell-surface expression (in words) (CCR2; in the absence of MCP-1, monocytes): slightly increased CCR2 cell-surface expression

CCCCOCCOc1ccc(-c2ccc3c(c2)C=C(C(=O)Nc2ccc([S@@+]([O-])Cc4cncn4CCC)cc2)CCCN3CC(C)C)cc1 [cenicriviroc mesylate, (S)-8-[4-(2-Butoxyethoxy)phenyl]-1-isobutyl-N-(4-{[(1-propyl-1H-imidazol-5-yl)methyl]sulfinyl}phenyl)-1,2,3,4-tetrahydro-1-benzazocine-5-carboxamide monomethanesulfonoate]
solubility ([3]; 99.5% ethanol): sparingly soluble
solubility ([3]; acetonitrile, 1-octanol, tetrahydrofuran): slightly soluble
solubility ([3]; aqueous solution at pH 3): sparingly soluble
solubility ([3]; aqueous solution from pH 1 to 2): freely soluble
solubility ([3]; aqueous solution from pH 4 to 13 and in water): practically insoluble
solubility ([3]; ethyl acetate and diethylether): practically insoluble
solubility ([3]; glacial acetic acid, methanol, benzyl alcohol, dimethylsulfoxide, N,N-dimethylformamide): freely soluble
solubility ([3]; pyridine and acetic anhydride): soluble

O=C1Nc2ccc(Cl)cc2[C@@](C#CC2CC2)(C(F)(F)F)O1 [EFV, efavirenz, reference compound]
patients in APRI category 0.5-1.5 ([4]; Baseline): 4%
patients in APRI category <0.5 ([4]; Baseline): 96%
patients in FIB-4 category <1.45 ([4]; Baseline): 100%
APRI: Decreased 1 category from baseline ([4]; Week 24): 5%
patients in APRI category <0.5 ([4]; Week 24): 100%
patients in FIB-4 category <1.45 ([4]; Week 24): 100%
APRI: Decreased 1 category from baseline ([4]; Week 48): 6%
patients in APRI category <0.5 ([4]; Week 48): 100%
patients in FIB-4 category 1.45-3.25 ([4]; Week 48): 6%
patients in FIB-4 category <1.45 ([4]; Week 48): 94%
Strong-stop HIV DNA decline (marker of HIV entry) (HIV): no decline
Discontinued study due to AE or death (HIV-1 [5]): (18%)
HIV-1 RNA ≧50 but <400 copies/mL (HIV-1 [5]): (4%)^f
virologic non-response, subgroup with high baseline viral load (≧100,000 copies/mL) (HIV-1 [6]; Week 24): 25%
virologic non-response, subgroup with high baseline viral load (≧100,000 copies/mL) (HIV-1 [6]; Week 48): 25%
Discontinued study due to AE or death (HIV-1 [6]; Week 48, EFV arm): (21%)
